Test results: PubChem BioAssay AID1918940 (Molecular Pharmacology Branch, DTP, NCI, 2023)

System: NCI-H211 complex spheroid viability
Test: Anticancer human tumor NCI-H211 cell line growth inhibition [LSD1];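 also: luminescent viability read after seven days of drug exposure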;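 as to viability, T/C: 100% = DMSO vehicle control viability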
Details: for IC50: curve of first compound; for viability, T/C: stronger effect = lower value
Procedure, shortened: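 Multicellular complex spheroids of tumor cells with human endothelial cells (HUVEC) and mesenchymal stem cells; the LSD1 inhibitor iadademstat was combined with standard-of-care or investigational agents. Top concentration at or near clinical Cmax, half-log dilutions; final DMSO ≤0.25%.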

[1] = second compound 0.1 µM, first compound 0.000316 µM
[2] = second compound 0.1 µM, first compound 0.001 µM
[3] = second compound 0.1 µM, first compound 0.00316 µM
[4] = second compound 0.1 µM, first compound 0.01 µM
[5] = second compound 0.1 µM, first compound 0.0316 µM
[6] = second compound 0.1 µM, first compound 0.1 µM
[7] = second compound 0.316 µM, first compound 0.000316 µM
[8] = second compound 0.316 µM, first compound 0.001 µM
[9] = second compound 0.316 µM, first compound 0.00316 µM
[10] = second compound 0.316 µM, first compound 0.01 µM
[11] = second compound 0.316 µM, first compound 0.0316 µM
[12] = second compound 0.316 µM, first compound 0.1 µM
[13] = second compound 1 µM, first compound 0.000316 µM
[14] = second compound 1 µM, first compound 0.001 µM
[15] = second compound 1 µM, first compound 0.00316 µM
[16] = second compound 1 µM, first compound 0.01 µM
[17] = second compound 1 µM, first compound 0.0316 µM
[18] = second compound 1 µM, first compound 0.1 µM
[19] = second compound 3.16 µM, first compound 0.000316 µM
[20] = second compound 3.16 µM, first compound 0.001 µM
[21] = second compound 3.16 µM, first compound 0.00316 µM
[22] = second compound 3.16 µM, first compound 0.01 µM
[23] = second compound 3.16 µM, first compound 0.0316 µM
[24] = second compound 3.16 µM, first compound 0.1 µM
[25] = second compound 10 µM, first compound 0.000316 µM
[26] = second compound 10 µM, first compound 0.001 µM
[27] = second compound 10 µM, first compound 0.00316 µM
[28] = second compound 10 µM, first compound 0.01 µM
[29] = second compound 10 µM, first compound 0.0316 µM
[30] = second compound 10 µM, first compound 0.1 µM

| Compound | IC50 (second compound 0.1 µM) | IC50 (second compound 0.316 µM) | IC50 (second compound 1 µM) | IC50 (second compound 3.16 µM) | IC50 (second compound 10 µM) | viability, T/C [3] | viability, T/C [4] | viability, T/C [5] | viability, T/C [6] | viability, T/C [9] | viability, T/C [10] | viability, T/C [11] | viability, T/C [12] | viability, T/C [15] | viability, T/C [16] | viability, T/C [17] | viability, T/C [18] | viability, T/C [21] | viability, T/C [22] | viability, T/C [23] | further results |
| --- | --- | --- | --- | --- | --- | --- | --- | --- | --- | --- | --- | --- | --- | --- | --- | --- | --- | --- | --- | --- | --- |
| CC(C)CC(NC(=O)C(Cc1ccccc1)NC(=O)c1cnccn1)B(O)O (stereo not given) + NC1CCC(NC2CC2c2ccccc2)CC1 | 2 nM | 2.05 nM | 1.79 nM | 1.68 nM | < 0.316 nM | 29.3% | 2.16% | 3.13% | 6.8% | 35.8% | 1.76% | 0.22% | 0.13% | 32.7% | 1.57% | 0.23% | 2.46% | 27.4% | 1.43% | 0.97% | viability, T/C [1]: 73.8%; viability, T/C [2]: 88.6%; viability, T/C [7]: 70.9%; viability, T/C [8]: 76%; viability, T/C [13]: 62.5%; viability, T/C [14]: 72.7%; viability, T/C [19]: 64.3%; viability, T/C [20]: 72.3%; viability, T/C [24]: 0.14%; viability, T/C [25]: 44.9%; viability, T/C [26]: 45.3%; viability, T/C [27]: 14.2%; viability, T/C [28]: 0.55%; viability, T/C [29]: 0.17%; viability, T/C [30]: 0.14% |
| CC(C)CC(NC(=O)CNC(=O)c1cc(Cl)ccc1Cl)B1OC(=O)CC(CC(=O)O)(C(=O)O)O1 (stereo not given) + NC1CCC(NC2CC2c2ccccc2)CC1 | 15.4 nM | 18 nM | 15.3 nM | 11.8 nM | < 0.316 nM | 103% | 65.1% | 22.5% | 7.53% | 111% | 76.9% | 23.5% | 7.18% | 109% | 65.3% | 21.4% | 6.25% | 95.6% | 53% | 18.1% | viability, T/C [1]: 81.6%; viability, T/C [2]: 90.2%; viability, T/C [7]: 81.5%; viability, T/C [8]: 93.3%; viability, T/C [13]: 79.3%; viability, T/C [14]: 85%; viability, T/C [19]: 59.8%; viability, T/C [20]: 65%; viability, T/C [24]: 5.75%; viability, T/C [25]: 44.9%; viability, T/C [26]: 37.5%; viability, T/C [27]: 51.2%; viability, T/C [28]: 35.5%; viability, T/C [29]: 12%; viability, T/C [30]: 2.35% |
| COc1cc(Nc2ncc3c(n2)-c2ccc(Cl)cc2C(c2c(F)cccc2OC)=NC3)ccc1C(=O)O + NC1CCC(NC2CC2c2ccccc2)CC1 | < 3.16 nM | < 3.16 nM | < 3.16 nM | < 3.16 nM | < 3.16 nM | 34% | 8.09% | 2.59% | 2.93% | 34.6% | 4.21% | 3.27% | 2.5% | 47.9% | 5.71% | 3.16% | 6.76% | 31.8% | 4.91% | 2.4% | viability, T/C (second compound 0.1 µM, first compound 0.316 µM): 2.92%; viability, T/C (second compound 0.1 µM, first compound 1 µM): 2.47%; viability, T/C (second compound 0.316 µM, first compound 0.316 µM): 2.51%; viability, T/C (second compound 0.316 µM, first compound 1 µM): 2.35%; viability, T/C (second compound 1 µM, first compound 0.316 µM): 2.71%; viability, T/C (second compound 1 µM, first compound 1 µM): 1.94%; viability, T/C [24]: 2.55%; viability, T/C (second compound 3.16 µM, first compound 0.316 µM): 1.47%; viability, T/C (second compound 3.16 µM, first compound 1 µM): 2.19%; viability, T/C [27]: 22.4%; viability, T/C [28]: 2.05%; viability, T/C [29]: 1.29%; viability, T/C [30]: 1.19%; viability, T/C (second compound 10 µM, first compound 0.316 µM): 1.28%; viability, T/C (second compound 10 µM, first compound 1 µM): 1.12% |
